Results as given in US20230317203A1, “SCREENING METHOD” (University of Leeds, priority 2022, published 2023).

Tests used:
BRISC BRCC36 Thr128Pro = BRISC BRCC36 Thr128Pro (Homo sapiens, UniProt P46736+Q15018+Q9NXR7, T128P); assay: Mass photometry, BRISC mutant BRCC36 Thr128Pro; type: binding; details: BRCC36 Thr128Pro (inactive mutant)
Description: Microscope coverslips were prepared as previously described^33. All mass photometry experiments were performed using a One^MP mass photometer (Refeyn Ltd, Oxford, UK). For preliminary BRISC-inhibitor measurements, 1 μM BRISC(FL) was mixed with either DMSO or inhibitor at 330 μM and incubated for 15 minutes on ice. Prior to MP measurement, the BRISC-inhibitor mix was diluted in gel filtration buffer (25 mM HEPES, 150 mM NaCl, 1 mM TCEP) for a final concentration of BRISC at 10 nM (0.05% DMSO). 12 μL of this dilution was used for the final MP measurement, following autofocus stabilisation. […] Movies were recorded for 60 seconds using AcquireMP (Refeyn, UK), and were processed using DiscoverMP (Refeyn, UK). […] The relative amount of each species is calculated as the area of each Gaussian, where a refers to the standard deviation of the fitted Gaussian. […] Curves were fitted and EC50 values were calculated using the GraphPad Prism (v8.0) built-in dose-response equation for concentration of agonist vs. response (variable slope).
The cryo-EM structures of BRISC bound to molecular glues allowed picking of selective mutations to probe the BRISC-compound interaction site and to assess the contribution of each interacting residue for inhibition and gluing activity. […] For the remaining active 13 mutants (FIGS. 11C, 11D) inhibitor IC50s were calculated against BRISC DUB activity. […]

BRISC Abraxas2 Ile133Trp = BRISC Abraxas2 Ile133Trp (Homo sapiens, UniProt P46736+Q15018+Q9NXR7, I133W); assay: IQF DUB assay, BRISC mutant Abraxas2 Ile133Trp; type: biochemical; details: FIG. 4B
Description: (§1) The four-subunit human BRISC (full-length (FL) and MERIT40ΔN, Abraxas2ΔC) complex was cloned using the MultiBac system and co-expressed in Spodoptera frugiperda (Sf9) insect cells^32. BRISC mutants were cloned into pFastBac vectors in the Bac-to-Bac system (ThermoFisher), baculoviruses generated in Sf9 cells and used for co-infection of Trichoplusia ni (Tni) cells. All BRISC complexes were purified as previously described^12,13.
(§2) BRISC complexes were tested for activity in DUB reaction buffer containing 50 mM HEPES-NaOH pH 7.0, 100 mM NaCl, 0.1 mg/mL BSA, 1 mM DTT, and 0.003% Brij-35. […] Inhibitors were assayed at concentrations up to 200 μM. […] DUB activity was measured using internally quenched fluorescent (IQF) K63-linked diUb (Lifesensors, catalogue number: DU6303) at 50 or 100 nM. Cleaved diUb was monitored by measuring fluorescence intensity (Ex. 540 nm, Em. 580 nm; dichroic mirror 560 nm). Fluorescence intensity was measured every minute for 30 minutes at 30° C. Fluorescence intensity units for the first 10 minutes were plotted against time to generate a linear reaction progress curve, where the initial velocity (v0) corresponds to the gradient of the curve. IC50 values were calculated using the GraphPad Prism (v8.0) built-in dose-response equation for inhibitor concentration vs. response (variable slope). […]

BRISC BRCC36 Trp130Ala = BRISC BRCC36 Trp130Ala (Homo sapiens, UniProt P46736+Q15018+Q9NXR7, W130A); assay: IQF DUB assay, BRISC mutant BRCC36 Trp130Ala; type: biochemical; details: FIG. 4B
Description: as §1, §2

BRISC BRCC36 Leu169Ala = BRISC BRCC36 Leu169Ala (Homo sapiens, UniProt P46736+Q15018+Q9NXR7, L169A); assay: IQF DUB assay, BRISC mutant BRCC36 Leu169Ala; type: biochemical; details: FIG. 4B
Description: as §1, §2

BRISC BRCC36 Arg167Ala = BRISC BRCC36 Arg167Ala (Homo sapiens, UniProt P46736+Q15018+Q9NXR7, R167A); assay: IQF DUB assay, BRISC mutant BRCC36 Arg167Ala; type: biochemical; details: FIG. 4B
Description: as §1, §2

BRISC(FL) = biological target: T1, BRISC(FL) (Homo sapiens, UniProt P46736+Q15018+Q9NXR7); assay: Native mass spectrometry of BRISC with inhibitor; type: binding; details: 10 μM BRISC(FL), 1 mM inhibitor
T1 construct: The four-subunit human BRISC (full-length (FL) and MERIT40ΔN, Abraxas2ΔC) complex was cloned; made in house; host or cells: Spodoptera frugiperda (Sf9) insect cells
Description: Samples were buffer exchanged into 500 mM ammonium acetate using Zeba Spin 7K MWCO desalting columns (ThermoFisher). Gold and palladium coated nanospray tips were prepared in-house and mounted on the nano-electrospray ionisation source. Mass spectra were acquired on a Q Exactive Ultra-High Mass Range Hybrid Quadrupole-Orbitrap mass spectrometer (Thermo Fisher), optimised for mass resolution at high m/z ratios. Data were visualised and processed using Mass Lynx (v4.1) and UniDec (v2.7.1).

BRISC Abraxas2 Thr140Ala = BRISC Abraxas2 Thr140Ala (Homo sapiens, UniProt P46736+Q15018+Q9NXR7, T140A); assay: IQF DUB assay, BRISC mutant Abraxas2 Thr140Ala; type: biochemical; details: FIG. 4B
Description: as §1, §2

In the case of `O=C(NC1C2CNCC21)c1nn(C(=O)c2c(Cl)cccc2Cl)cc1NC(=O)c1c(Cl)cccc1Cl` (stereo not shown) [FX-171-C], the inhibitor-induced dimerisation (BRISC BRCC36 Thr128Pro) was “still formed a dimer”, the “inhibitor sensitivity of mutant” value (BRISC Abraxas2 Ile133Trp) was “no effect on inhibitor sensitivity” and the “inhibitor sensitivity of mutant” value (BRISC BRCC36 Trp130Ala) was “severely affected”. The “inhibitor sensitivity of mutant” value (BRISC BRCC36 Leu169Ala) was “severely affected”, the “inhibitor sensitivity of mutant” value (BRISC BRCC36 Arg167Ala) was “remained inhibitor sensitive” and the “BRISC species by native mass spectrometry” value (BRISC(FL)) was “BRISC dimers with a MW consistent with a 4:4:4:4 stoichiometry were observed”. For the same compound, the “IC50 higher than BRISC WT” value (BRISC Abraxas2 Thr140Ala) was 10 fold.
